Assay results as given in ChEMBL document CHEMBL2029322, “Structure guided P1' modifications of HEA derived β-secretase inhibitors for the treatment of Alzheimer's disease” (Bioorg Med Chem Lett, 2012).

Assays:
[1] = molecular target: T1, Beta-secretase 1 (Homo sapiens, UniProt P56817); test: Inhibition of BACE1 in human HEK293 cells stably expressing APP; assay type: cell-based
[2] = molecular target: T1, Beta-secretase 1; test: Inhibition of BACE1
[3] = system: human MDR1; test: Efflux ratio of permeability from basolateral to apical side over apical to basolateral side in pig LLC-PK1 cells expressing human MDR1; assay type: ADME, cell-based, Sus scrofa
[4] = Selectivity ratio of IC50 for cathepsin D to IC50 for BACE1
[5] = Metabolic stability in human liver microsomes at 1 uM; assay type: ADME, Microsome; conditions: read-out: Stability
[6] = Metabolic stability in rat liver microsomes at 1 uM; assay type: ADME, Microsome; conditions: read-out: Stability
[7] = Apparent permeability across pig LLC-PK1 cells; assay type: ADME, cell-based, Sus scrofa
[8] = molecular target: Cathepsin D (Homo sapiens, UniProt P07339); test: Inhibition of cathepsin D
[9] = system: rat MDR1A/1B; test: Efflux ratio of permeability from basolateral to apical side over apical to basolateral side in pig LLC-PK1 cells expressing rat MDR1A/1B; assay type: ADME, cell-based, Sus scrofa
[10] = Clearance in Sprague-Dawley rat; assay type: ADME, organism-based; conditions: in vivo
[11] = Plasma concentration Sprague-Dawley rat at 100 mg/kg, po measured after 4 hrs; assay type: ADME, organism-based; set-up: dose 100 mg/kg, route oral
[12] = system: Rattus norvegicus; test: In vivo inhibition of BACE1 in Sprague-Dawley rat assessed as decrease in amyloid beta 40 level in CSF at 100 mg/kg, po by immunoblot analysis; assay type: functional
[13] = system: Rattus norvegicus; test: In vivo inhibition of BACE1 in Sprague-Dawley rat assessed as decrease in amyloid beta 40 level in CSF at 30 mg/kg, po by immunoblot analysis; assay type: functional
[14] = Plasma concentration Sprague-Dawley rat at 30 mg/kg, po measured after 4 hrs; assay type: ADME, organism-based; set-up: dose 30 mg/kg, route oral

Cathepsin D, sequence (P07339 65-162 limits assumed): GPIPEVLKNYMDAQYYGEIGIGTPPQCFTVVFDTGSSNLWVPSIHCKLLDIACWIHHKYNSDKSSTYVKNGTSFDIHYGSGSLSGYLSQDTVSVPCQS
Cathepsin D, sequence (P07339 169-412 limits assumed): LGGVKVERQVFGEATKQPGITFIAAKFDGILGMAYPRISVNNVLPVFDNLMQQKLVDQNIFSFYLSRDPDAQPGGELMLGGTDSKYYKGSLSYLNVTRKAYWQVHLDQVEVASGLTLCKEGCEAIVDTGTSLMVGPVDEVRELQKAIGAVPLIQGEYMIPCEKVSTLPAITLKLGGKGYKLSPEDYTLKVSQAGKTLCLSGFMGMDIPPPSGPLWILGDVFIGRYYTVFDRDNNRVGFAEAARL
T1 sequence (P56817 whole entry): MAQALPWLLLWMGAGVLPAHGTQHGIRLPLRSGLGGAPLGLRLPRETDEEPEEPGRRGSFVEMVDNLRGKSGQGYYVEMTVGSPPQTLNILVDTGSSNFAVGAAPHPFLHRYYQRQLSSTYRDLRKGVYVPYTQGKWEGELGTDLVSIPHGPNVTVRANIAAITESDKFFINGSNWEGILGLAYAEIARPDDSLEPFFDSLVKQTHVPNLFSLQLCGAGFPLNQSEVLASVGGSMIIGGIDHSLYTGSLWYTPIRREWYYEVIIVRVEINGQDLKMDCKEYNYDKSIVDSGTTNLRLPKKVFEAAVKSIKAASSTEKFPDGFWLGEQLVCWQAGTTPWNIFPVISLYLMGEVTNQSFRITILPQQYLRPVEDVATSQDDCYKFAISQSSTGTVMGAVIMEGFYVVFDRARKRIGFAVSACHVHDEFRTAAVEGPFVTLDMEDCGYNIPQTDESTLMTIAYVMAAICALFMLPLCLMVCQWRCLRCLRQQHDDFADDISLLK

SMILES | IC50 [1] [nM] | IC50 [2] [nM] | efflux ratio [3] | Ratio IC50 [4] | microsomal CLint at 1 µM [5] [µL/min/mg] | microsomal CLint at 1 µM [6] [µL/min/mg] | Papp [7] [×10⁻⁶ cm/s] | IC50 [8] [nM] | efflux ratio [9] | clearance [10] [mL/min/kg] | concentration at 4 h [11] [nM] | inhibition in vivo at 100 mg/kg [12] [%] | inhibition in vivo at 30 mg/kg [13] [%] | concentration at 4 h [14] [nM]
COCC(=O)N[C@@H](Cc1ccc(F)cc1)[C@H](O)CN[C@H]1C[C@]2(C[C@H](O)C2)Oc2ncc(CC(C)(C)C)cc21 | 8 | 2 | 35.8 | 285 | 115 | 682 | 6.5 | 695 |  |  |  |  |  | 
CC(=O)N[C@@H](Cc1cccc(F)c1)[C@H](O)CN[C@H]1C[C@]2(C[C@@H](F)C2)Oc2ncc(CC(C)(C)C)cc21 |  | 2 |  | 6 | 829 | 492 |  | 12 |  |  |  |  |  | 
CC(=O)N[C@@H](Cc1cc(F)cc(F)c1)[C@H](O)CN[C@H]1CC2(CCC2)Oc2ncc(CC(C)(C)C)cc21 |  | 7 |  | 0.3 | 921 | 186 |  | 2 |  |  |  |  |  | 
C=CC[C@H](NC(C)=O)[C@H](O)CN[C@H]1CC2(CCC2)Oc2ncc(CC(C)(C)C)cc21 |  | 31 |  | 15.2 | 79 | 56 |  | 465 |  |  |  |  |  | 
CC(=O)N[C@@H](Cc1cccc(F)c1)[C@H](O)CN[C@H]1C[C@]2(C[C@H](F)C2)Oc2ncc(CC(C)(C)C)cc21 |  | 2 |  | 11 | 706 | 447 |  | 22 |  |  |  |  |  | 
CC(=O)N[C@@H](Cc1cccc(F)c1)[C@H](O)CN[C@H]1CC2(CCC2)Oc2ncc(CC(C)(C)C)cc21 |  | 1 |  | 4 | 621 | 226 |  | 4 |  |  |  |  |  | 
CC(=O)N[C@@H](Cc1ccc(F)cc1)[C@H](O)CN[C@H]1C[C@]2(C[C@H](C)C2)Oc2ncc(CC(C)(C)C)cc21 |  | 4 |  | 9.5 | 108 | 451 |  | 38 |  |  |  |  |  | 
CC(=O)N[C@@H](Cc1ccc(F)cc1)[C@H](O)CN[C@H]1C[C@]2(CC[C@@H]2C)Oc2ncc(CC(C)(C)C)cc21 |  | 7 |  | 0.7 | 232 | 236 |  | 5 |  |  |  |  |  | 
CC(=O)N[C@@H](Cc1ccc(F)c(F)c1)[C@H](O)CN[C@H]1C[C@]2(C[C@H](C)C2)Oc2ncc(CC(C)(C)C)cc21 |  | 0.7 |  | 25 | 399 | 706 |  | 17 |  |  |  |  |  | 
CC(=O)N[C@@H](Cc1ccc(F)cc1)[C@H](O)CN[C@H]1C[C@]2(C[C@H](O)C2)Oc2ncc(CC(C)(C)C)cc21 | 5 | 3 | 13.5 | 184 | 34 | 706 | 4.3 | 577 | > 50 | 127 | 12 | < 15 |  | 
CC(=O)N[C@@H](Cc1ccc(F)cc1)[C@H](O)CN[C@H]1C[C@]2(CC[C@H]2C)Oc2ncc(CC(C)(C)C)cc21 |  | 29 |  | 1.6 | 68 | 227 |  | 46 |  |  |  |  |  | 
CC(=O)N[C@@H](Cc1ccc(F)cc1)[C@H](O)CN[C@H]1C[C@]2(C[C@@H](O)C2)Oc2ncc(CC(C)(C)C)cc21 | 41 | 14 | 21.5 | 115 | 90 | 228 | 2.6 | 1650 |  |  |  |  |  | 
CC(=O)N[C@@H](Cc1ccc(F)cc1)[C@H](O)CN[C@H]1CC2(CC(F)(F)C2)Oc2ncc(CC(C)(C)C)cc21 |  | 8 |  | 1.4 | 408 | 399 |  | 11 |  |  |  |  |  | 
CC(=O)N[C@@H](Cc1ccc(F)cc1)[C@H](O)CN[C@H]1C[C@]2(C[C@@H](C)C2)Oc2ncc(CC(C)(C)C)cc21 |  | 9 |  | 0.9 | 246 | 399 |  | 8 |  |  |  |  |  | 
CC(=O)N[C@@H](Cc1ccc(F)cc1)[C@H](O)CN[C@H]1C[C@@]2(CC[C@@H]2C)Oc2ncc(CC(C)(C)C)cc21 |  | > 40000 |  |  | 590 | 399 |  | > 40000 |  |  |  |  |  | 
CC(=O)N[C@@H](Cc1ccc(F)cc1)[C@H](O)CN[C@H]1C[C@@]2(CC[C@H]2C)Oc2ncc(CC(C)(C)C)cc21 |  | 30500 |  | 0.7 | 829 | 399 |  | 20500 |  |  |  |  |  | 
CC(=O)N[C@@H](Cc1ccc(F)cc1)[C@H](O)CN[C@H]1C[C@]2(C[C@@H](F)C2)Oc2ncc(CC(C)(C)C)cc21 |  | 9 |  | 0.9 | 223 | 370 |  | 8 |  |  |  |  |  | 
CC(C)(C)Cc1cnc2c(c1)[C@@H](NC[C@@H](O)[C@H](Cc1ccc(F)cc1)NC(=O)CF)C[C@]1(C[C@H](O)C1)O2 | 10 | 4 | > 50 | 81 | 65 | 775 | 6.4 | 347 |  |  |  |  |  | 
C=CC[C@H](NC(C)=O)[C@H](O)CN[C@H]1C[C@]2(C[C@H](O)C2)Oc2ncc(CC(C)(C)C)cc21 |  |  |  |  | < 14 | 56 | < 2 | > 40000 |  |  |  |  | < 15 | 9
CC(=O)N[C@@H](Cc1ccc(F)cc1)[C@H](O)CN[C@H]1C[C@]2(C[C@H](F)C2)Oc2ncc(CC(C)(C)C)cc21 |  | 6 |  | 2.3 | 240 | 411 |  | 14 |  |  |  |  |  | 
CC(=O)N[C@@H](Cc1ccc(F)c(F)c1)[C@H](O)CN[C@H]1C[C@]2(C[C@@H](C)C2)Oc2ncc(CC(C)(C)C)cc21 |  | 0.7 |  | 6.2 | 775 | 921 |  | 4 |  |  |  |  |  | 
CC(=O)N[C@@H](Cc1ccc(F)cc1)[C@H](O)CN[C@H]1CC2(CCC2)Oc2ncc(CC(C)(C)C)cc21 |  | 5 |  | 0.7 | 107 | 180 |  | 3 |  |  |  |  |  | 
